Measured values from patent US12686679B2, “Crystals of alkynyl-containing compound, salt and solvate thereof, preparation method, and applications” (GUANGZHOU HEALTHQUEST PHARMA CO., LTD., priority 2020, dated 2026).
Values belong to the compound of their own block, whether it stands above or below them.

Key:
Assay type in all cases: physicochemical
[1] = Stability test of crystal form I (different temperature, humidity and light)
Description: (§1) Using X-ray powder diffractometer (Brooke D8 advance or D2 Phase) was used to characterize the solid. • Scanning angle: […]-40 (2θ). • Step size: 0.02° (2θ). • Scan speed: 0.3 sec/step (D8), 0.2 sec/step (D2). • Light tube voltage: 40 KV (D8), 30 KV (D2). • Light tube current: 40 mA (D8), 10 mA (D2). • Rotation: On. • Sample tray: zero background sample tray. TGA
The stability of the crystal form I prepared in Examples 1-13 was studied. Before the test, the single impurities of the crystal form I were less than 0.05%, and the total impurities were less than 0.05%.
Place the crystal form I under 60° C., high humidity, and light conditions, and sample at 0 days/5 days/10 days to investigate its content and related substances. The lighting conditions are: total illuminance: ≥1.2×106 Lux·hr, near ultraviolet energy ≥200 w·hr/m2.

[2] = Suspension stirring experiment of crystal form I (stability in different solvents); conditions: for 50° C. suspension (solid form) / Room temperature suspension (solid form): stirred 3 days
Description: as §1
Weigh the sample crystal form I and place it in a sample bottle, and then add a solvent to prepare a suspension. The resulting suspension is stirred at room temperature and 50° C. for 3 days, then filtered and collected the solid, and the solid is characterized.

[3] = Hygroscopicity test of crystal form I, dynamic moisture adsorption (DVS)
Description: (§2) DVS analysis of solids using IGASORP dynamic water adsorption instrument. • temperature: 25° C. • airflow: 250 mL/min. • Scan loop: 2. • Minimum test time: 30 min. • Longest test time: 2 h. • Waiting for balance: 98%. PLM
The hygroscopicity of the crystal form I prepared in Examples 1-13 was studied, and 10 mg of the crystal form I was taken for a dynamic moisture adsorption (DVS) test.

[4] = Hygroscopicity study of crystal form II, dynamic moisture adsorption (DVS); conditions: for DVS (90% RH): moisture absorption at 90% relative humidity (RH), 25° C.
Description: as §2
The crystalline form II prepared in Example 21 was used to conduct a moisture absorption study, and about 10 mg of crystalline form II was taken for a dynamic moisture adsorption (DVS) test. The conclusions are described in Table 24 below

[5] = Stability test of crystal form II (different temperature and humidity)
[6] = Suspension stirring experiment of crystal form II (stability in different solvents); conditions: for Room temperature suspension (solid form) / 50° C. suspension (solid form): stirred 3-4 days
Description: as §1
The resulting suspension is stirred at room temperature and 50° C. for 3-4 days, then filtered and collected the solid. After vacuum drying at room temperature, the solid was characterized.

[7] = 0 day (before the test), listed as Form I
[8] = 0 day (before the test), listed as crystal form I
[9] = 60° C., high humidity and light conditions on 5 and 10 days
[10] = 0 day (before the test), listed as crystal form II
[11] = 60° C. and high humidity in 5 and 10 days

- XPRD ([1]; 0 day): Form I
- content ([1]; 0 day): 101.2%
- Single impurity [1, 7]: <0.05%
- Total impurities [1, 7]: <0.05%
- Single impurity [1, 8]: less than 0.05%
- Total impurities [1, 8]: less than 0.05%
- content [1, 9]: ~100%
- single impurity content [1, 9]: less than 0.05%
- total impurity content [1, 9]: less than 0.05%
- stability (conclusion) ([1]; 60° C., high humidity and light conditions, 5 and 10 days): good stability
- Single impurity ([1]; 5 days-60° C.): <0.05%
- Total impurities ([1]; 5 days-60° C.): <0.05%
- XPRD ([1]; 5 days-60° C.): Form I
- content ([1]; 5 days-60° C.): 100.8%
- Single impurity ([1]; 5 days-high humidity): <0.05%
- Total impurities ([1]; 5 days-high humidity): <0.05%
- XPRD ([1]; 5 days-high humidity): Form I
- content ([1]; 5 days-high humidity): 101.4%
- Single impurity ([1]; 5 days-light): <0.05%
- Total impurities ([1]; 5 days-light): <0.05%
- XPRD ([1]; 5 days-light): Form I
- content ([1]; 5 days-light): 101.5%
- Single impurity ([1]; 10 days-60° C.): <0.05%
- Total impurities ([1]; 10 days-60° C.): <0.05%
- XPRD ([1]; 10 days-60° C.): Form I
- content ([1]; 10 days-60° C.): 100.8%
- Single impurity ([1]; 10 days-high humidity): <0.05%
- Total impurities ([1]; 10 days-high humidity): <0.05%
- XPRD ([1]; 10 days-high humidity): Form I
- content ([1]; 10 days-high humidity): 100.9%
- Single impurity ([1]; 10 days-light): <0.05%
- Total impurities ([1]; 10 days-light): <0.05%
- XPRD ([1]; 10 days-light): Form I
- content ([1]; 10 days-light): 100.4%
- 50° C. suspension (solid form) ([2]; Acetone): Form I
- Room temperature suspension (solid form) ([2]; Acetone): Form I
- 50° C. suspension (solid form) ([2]; Acetonitrile): Form I
- Room temperature suspension (solid form) ([2]; Acetonitrile): Form I
- 50° C. suspension (solid form) ([2]; Acetonitrile:water 1:1 (v:v)): Form I
- Room temperature suspension (solid form) ([2]; Acetonitrile:water 1:1 (v:v)): Form I
- 50° C. suspension (solid form) ([2]; Butanone): Form I
- Room temperature suspension (solid form) ([2]; Butanone): Form I
- 50° C. suspension (solid form) ([2]; Ethanol): Form I
- Room temperature suspension (solid form) ([2]; Ethanol): Form I
- 50° C. suspension (solid form) ([2]; Ethyl acetate): Form I
- Room temperature suspension (solid form) ([2]; Ethyl acetate): Form I
- 50° C. suspension (solid form) ([2]; Isopropanol): Form I
- Room temperature suspension (solid form) ([2]; Isopropanol): Form I
- 50° C. suspension (solid form) ([2]; Isopropyl acetate): Form I
- Room temperature suspension (solid form) ([2]; Isopropyl acetate): Form I
- 50° C. suspension (solid form) ([2]; Methanol): Form I
- Room temperature suspension (solid form) ([2]; Methanol): Form I
- 50° C. suspension (solid form) ([2]; Methyl tert-butyl ether): Form I
- Room temperature suspension (solid form) ([2]; Methyl tert-butyl ether): Form I
- stability in a variety of solvents (conclusion) ([2]; suspension stirring, room temperature and 50° C.): good stability
- DVS (90% RH) ([3]; 90% RH, 25° C.): 0.12%
- DVS XRPD ([3]; XRPD after DVS): Unchanged
- hygroscopicity (conclusion) ([3]; during storage): not easy to absorb water
Structure (SMILES): Cc1ccc(C(=O)Nc2ccc(CN3CCN(C)CC3)c(C(F)(F)F)c2)cc1C#Cc1cnc2[nH]ncc2c1 [Crystal form I, 3-((1H-pyrazolo[3,4-b]pyridin-5-yl)ethynyl)-4-methyl-N-(4-((4-methylpiperazine-1-yl)methyl)-3-(trifluoromethyl)phenyl) benzamide]

- hygroscopicity (conclusion) ([4]; during storage): not easy to absorb water
- XRPD before and after DVS ([4]; listed as Crystal Form II): Unchanged
- XRPD before and after DVS ([4]; listed as crystal form II): has not changed
- DVS (90% RH) ([4]; listed as Crystal Form II): 1.66%
- DVS (90% RH) ([4]; listed as crystal form II): 1.66%
- XPRD ([5]; 0 day): Crystal Form II
- content ([5]; 0 day): 98.7%
- Single impurity ([5]; 0 day (before the test)): <0.05%
- Total impurities ([5]; 0 day (before the test)): <0.05%
- Single impurity [5, 10]: less than 0.05%
- Total impurities [5, 10]: less than 0.05%
- The content (single impurity) [5, 11]: less than 0.05
- content [5, 11]: ≥ 98.5%
- total impurity content [5, 11]: less than 0.05
- stability (conclusion) ([5]; 60° C. and high humidity, 5 and 10 days): good stability
- Single impurity ([5]; 5 days-60° C.): <0.05%
- Total impurities ([5]; 5 days-60° C.): <0.05%
- XPRD ([5]; 5 days-60° C.): Crystal Form II
- content ([5]; 5 days-60° C.): 99.5%
- Single impurity ([5]; 5 days-high (high humidity)): <0.05%
- Total impurities ([5]; 5 days-high (high humidity)): <0.05%
- XPRD ([5]; 5 days-high (high humidity)): Crystal Form II
- content ([5]; 5 days-high (high humidity)): 99.4%
- Single impurity ([5]; 10 days-60° C.): <0.05%
- Total impurities ([5]; 10 days-60° C.): <0.05%
- XPRD ([5]; 10 days-60° C.): Crystal Form II
- content ([5]; 10 days-60° C.): 99.2%
- Single impurity ([5]; 10 days-high (high humidity)): <0.05%
- Total impurities ([5]; 10 days-high (high humidity)): <0.05%
- XPRD ([5]; 10 days-high (high humidity)): Crystal Form II
- content ([5]; 10 days-high (high humidity)): 99.0%
- Room temperature suspension (solid form) ([6]; 1,4-dioxane): Crystal Form II
- 50° C. suspension (solid form) ([6]; Acetone:water 1:2 (v:v)): Crystal Form XIV
- 50° C. suspension (solid form) ([6]; Acetonitrile): Crystal Form II
- Room temperature suspension (solid form) ([6]; Acetonitrile): Crystal Form II
- 50° C. suspension (solid form) ([6]; Ethyl acetate): Crystal Form II
- Room temperature suspension (solid form) ([6]; Ethyl acetate): Crystal Form II
- 50° C. suspension (solid form) ([6]; Isopropanol): Crystal Form II
- Room temperature suspension (solid form) ([6]; Isopropanol): Crystal Form II
- Room temperature suspension (solid form) ([6]; Isopropyl acetate): Crystal Form II
- Room temperature suspension (solid form) ([6]; Methanol:water 3:1 (v:v)): Crystal Form II
- Room temperature suspension (solid form) ([6]; N-heptane): Crystal Form II
- 50° C. suspension (solid form) ([6]; Tetrahydrofuran): Crystal Form II
- Room temperature suspension (solid form) ([6]; Tetrahydrofuran): Crystal Form II
- 50° C. suspension (solid form) ([6]; ethanol): Crystal Form II
- Room temperature suspension (solid form) ([6]; ethanol): Crystal Form II
- 50° C. suspension (solid form) ([6]; methanol): Crystal Form II
- Room temperature suspension (solid form) ([6]; methanol): Crystal Form II
- stability at room temperature and 50° C. (conclusion) ([6]; suspension stirring in solvents): good stability
Structure (SMILES): Cc1ccc(C(=O)Nc2ccc(CN3CCN(C)CC3)c(C(F)(F)F)c2)cc1C#Cc1cnc2[nH]ncc2c1.O=C(O)/C=C/C(=O)O [Crystal form II, 3-((1H-pyrazolo[3,4-b]pyridin-5-yl)ethynyl)-4-methyl-N-(4-((4-methylpiperazine-1-yl)methyl)-3-(trifluoromethyl)phenyl) benzamide fumarate]
